Results taken from PubChem BioAssay AID1259407 (Chemical Carcinogenesis Research Information System (CCRIS), 2018).
Active and inactive are the calls of the source. The rule behind the calls is not given here.

System: CCRIS mutagenicity, Ames/micronucleus/aberration tests
Assay: CCRIS mutagenicity studies
Settings: Test System: AMES SALMONELLA TYPHIMURIUM, Method: STANDARD PLATE

O=C(/C=C/c1ccc([N+](=O)[O-])o1)N/N=C/c1ccc([N+](=O)[O-])o1
mutagenic call (Strain/Indicator: TA98(1,8-DNP6), Metabolic Activation: NONE): active; positive
mutagenic call (Strain/Indicator: TA98(1,8-DNP6), Metabolic Activation: RAT, LIVER, S-9, 3-METHYLCHOLANTHRENE): active; positive
mutagenic call (Strain/Indicator: TA98(NR), Metabolic Activation: NONE): active; positive
mutagenic call (Strain/Indicator: TA98(NR), Metabolic Activation: RAT, LIVER, S-9, 3-METHYLCHOLANTHRENE): active; positive
mutagenic call (Strain/Indicator: TA98, Metabolic Activation: NONE): active; positive
mutagenic call (Strain/Indicator: TA98, Metabolic Activation: RAT, LIVER, S-9, 3-METHYLCHOLANTHRENE): active; positive

COC1=CC(=O)C=CC1=Nc1c2ccccc2nc2ccccc12
mutagenic call (Strain/Indicator: TA1537, Metabolic Activation: NONE): inactive; negative
